Molecular target: T1, phosphorylated VEGF-R2Δ50 (Homo sapiens, UniProt P35968, DEL940-989/E990V)
T1 construct: VEGF-R2Δ50 contains residues 806-939 and 990-1171; made in house; host or cells: baculovirus/insect cells
Assay: VEGF-R2 ELISA assay (phosphogastrin formation)
Assay type: biochemical
Conditions: @ 10 μM (ELISA); read-out: FLVK-P percent inhibition (ELISA)
Source text: A construct (VEGF-R2Δ50) of the cytosolic domain of human vascular endothelial growth factor receptor 2 (VEGF-R2) lacking the 50 central residues of the 68 residues of the kinase insert domain was expressed in a baculovirus/insect cell system. Of the 1356 residues of full-length VEGF-R2, VEGF-R2Δ50 contains residues 806-939 and 990-1171, and also one point mutation (E990V) within the kinase insert domain relative to wild-type VEGF-R2. See commonly assigned, co-pending U.S. patent application Ser. No. 09/390,326, filed Sep. 7, 1999, incorporated by reference herein, for discussion of VEGF constructs and expression systems. Autophosphorylation of the purified construct was performed by incubation of the enzyme at a concentration of 4 μM in the presence of 3 mM ATP and 40 mM MgCl2 in 100 mM Hepes, pH 7.5, containing 5% glycerol and 5 mM DTT, at 4° C. for 2 h. […]
Formation of phosphogastrin was monitored using biotinylated gastrin peptide (1-17) as substrate. […] The activity of horseradish peroxidase was monitored using 2,2′-azino-di-[3-ethylbenzathiazoline sulfonate(6)] diammonium salt (ABTS). […] The horseradish peroxidase reaction was quenched by addition of acid (H2SO4), followed by absorbance reading at 405 nm. Ki values were determined by measuring enzyme activity in the presence of varying concentrations of test compounds. The data were analyzed using Enzyme Kinetic and Kaleidagraph software.

T1 sequence (P35968 with tags, fused parts or gaps DEL940-989/E990V limits assumed): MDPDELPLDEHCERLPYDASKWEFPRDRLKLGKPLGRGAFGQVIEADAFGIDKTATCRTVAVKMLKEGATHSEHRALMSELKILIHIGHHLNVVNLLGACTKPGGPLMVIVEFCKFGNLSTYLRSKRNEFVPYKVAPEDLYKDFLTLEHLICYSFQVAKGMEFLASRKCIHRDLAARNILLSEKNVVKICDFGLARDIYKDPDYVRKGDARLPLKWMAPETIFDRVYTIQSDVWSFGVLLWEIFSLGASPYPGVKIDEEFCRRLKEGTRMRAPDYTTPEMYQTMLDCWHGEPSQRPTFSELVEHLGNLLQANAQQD

inhibition at 10 µM: 62%
Structure (SMILES): O=C(NCc1ccc2c(c1)OCO2)c1cccc(CSc2ncnc3[nH]ncc23)c1 [Example B-6, N-(1,3-Benzodioxyl-5-ylmethyl)-3-[(1H-pyrazolo[3,4-d]pyrimidin-4-yl)sulfanylmethyl]benzamide]

— patent publication US6635641B2 (Agouron Pharmaceuticals, Inc., priority 2000, dated 2003)
